Results from ChEMBL document CHEMBL4706647, “Development and optimization of halogenated vinyl sulfones as Nrf2 activators for the treatment of Parkinson's disease” (Eur J Med Chem, 2021).

Legend:
[1] = molecular target: T1, Nuclear factor erythroid 2-related factor 2 (Homo sapiens, UniProt Q16236); test: Activation of Nrf2 (unknown origin) expressed in human U2OS cells co-expressing Keap1 assessed as increase in Nrf2 nuclear translocation incubated for 6 hrs under dark condition by pathhunter assay; format: cell-based
T1 sequence (Q16236 whole entry): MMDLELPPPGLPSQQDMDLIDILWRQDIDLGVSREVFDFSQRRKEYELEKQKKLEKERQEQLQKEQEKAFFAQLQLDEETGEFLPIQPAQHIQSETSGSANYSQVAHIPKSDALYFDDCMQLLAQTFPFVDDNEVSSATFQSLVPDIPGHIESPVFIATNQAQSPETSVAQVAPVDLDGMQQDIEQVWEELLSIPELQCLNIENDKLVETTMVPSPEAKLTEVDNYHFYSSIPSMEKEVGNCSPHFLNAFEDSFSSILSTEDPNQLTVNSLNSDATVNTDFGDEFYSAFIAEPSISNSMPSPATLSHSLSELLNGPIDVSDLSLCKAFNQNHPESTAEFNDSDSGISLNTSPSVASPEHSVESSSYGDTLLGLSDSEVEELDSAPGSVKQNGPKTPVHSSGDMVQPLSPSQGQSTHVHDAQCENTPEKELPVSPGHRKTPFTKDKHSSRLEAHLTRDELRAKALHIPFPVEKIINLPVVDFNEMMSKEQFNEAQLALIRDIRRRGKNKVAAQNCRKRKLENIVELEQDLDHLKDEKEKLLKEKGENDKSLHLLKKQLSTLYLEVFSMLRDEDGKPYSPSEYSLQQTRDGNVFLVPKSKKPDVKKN

[2] = Cytotoxicity against mouse BV-2 cells assessed cell viability at 10 uM measured after 6 hrs by Ez-cytox reagent based assay relative to control; conditions: read-out: Activity
CYP2C9 = CYP2C9 (Homo sapiens, UniProt P11712); test: Inhibition of CYP2C9 (unknown origin) assessed as residual activity; format: ADME
Chain of CYP2C9 (P11712 whole entry): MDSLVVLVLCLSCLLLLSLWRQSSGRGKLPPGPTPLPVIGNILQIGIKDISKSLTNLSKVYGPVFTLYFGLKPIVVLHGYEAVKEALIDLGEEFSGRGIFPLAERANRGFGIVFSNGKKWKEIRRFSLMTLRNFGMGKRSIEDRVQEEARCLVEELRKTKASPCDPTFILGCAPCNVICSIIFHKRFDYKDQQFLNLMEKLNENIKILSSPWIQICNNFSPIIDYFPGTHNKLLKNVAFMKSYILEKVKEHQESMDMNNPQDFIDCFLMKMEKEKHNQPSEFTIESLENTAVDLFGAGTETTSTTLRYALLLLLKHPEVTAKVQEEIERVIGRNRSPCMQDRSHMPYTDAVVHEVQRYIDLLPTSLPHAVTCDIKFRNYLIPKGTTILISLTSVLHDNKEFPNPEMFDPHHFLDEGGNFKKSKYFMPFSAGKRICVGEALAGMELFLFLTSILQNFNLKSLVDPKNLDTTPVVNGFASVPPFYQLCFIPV

[3] = Stability in human plasma assessed as parent compound remaining after 30 mins by LC-MS/MS analysis; format: ADME, cell-free; conditions: read-out: Stabilty
[4] = molecular target: Voltage-gated inwardly rectifying potassium channel KCNH2 (Homo sapiens, UniProt Q12809); test: Inhibition of fluorescence tracer red binding to human ERG measured after 4 hrs by fluorescence polarization assay
Chain of Voltage-gated inwardly rectifying potassium channel KCNH2 (Q12809 whole entry): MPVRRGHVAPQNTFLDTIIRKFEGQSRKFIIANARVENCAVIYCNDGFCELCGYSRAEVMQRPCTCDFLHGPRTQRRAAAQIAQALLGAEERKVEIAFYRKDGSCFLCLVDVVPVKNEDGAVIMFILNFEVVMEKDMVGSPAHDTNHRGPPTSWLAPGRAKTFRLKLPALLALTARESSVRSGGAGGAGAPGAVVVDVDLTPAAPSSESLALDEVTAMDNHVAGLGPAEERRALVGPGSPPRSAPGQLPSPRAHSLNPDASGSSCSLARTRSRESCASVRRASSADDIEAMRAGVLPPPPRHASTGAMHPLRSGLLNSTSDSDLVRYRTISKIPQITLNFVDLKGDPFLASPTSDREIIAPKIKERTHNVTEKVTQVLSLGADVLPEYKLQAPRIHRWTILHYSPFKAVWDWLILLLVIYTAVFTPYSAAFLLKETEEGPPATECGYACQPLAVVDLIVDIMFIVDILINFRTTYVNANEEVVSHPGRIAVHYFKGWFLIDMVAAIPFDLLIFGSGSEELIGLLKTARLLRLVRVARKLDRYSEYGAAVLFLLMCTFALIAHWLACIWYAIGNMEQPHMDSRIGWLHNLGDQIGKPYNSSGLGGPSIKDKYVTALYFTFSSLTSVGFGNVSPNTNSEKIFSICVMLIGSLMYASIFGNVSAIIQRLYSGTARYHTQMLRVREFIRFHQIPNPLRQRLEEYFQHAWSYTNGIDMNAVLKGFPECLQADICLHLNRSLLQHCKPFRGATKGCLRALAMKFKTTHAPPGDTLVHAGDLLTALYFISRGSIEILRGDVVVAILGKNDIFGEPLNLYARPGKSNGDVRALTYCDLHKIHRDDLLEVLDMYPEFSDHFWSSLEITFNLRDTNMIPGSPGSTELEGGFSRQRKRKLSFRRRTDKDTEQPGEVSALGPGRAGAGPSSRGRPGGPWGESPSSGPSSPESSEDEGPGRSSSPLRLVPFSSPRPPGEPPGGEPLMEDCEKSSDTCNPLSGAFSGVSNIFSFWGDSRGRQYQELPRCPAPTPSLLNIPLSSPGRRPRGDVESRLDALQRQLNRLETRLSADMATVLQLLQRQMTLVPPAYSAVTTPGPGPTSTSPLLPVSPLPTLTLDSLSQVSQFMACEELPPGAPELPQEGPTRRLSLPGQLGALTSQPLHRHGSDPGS

EC50 [1]	Compound	other results
1070 nM	O=S(=O)(/C=C/c1cccc(Cl)n1)c1cccc(Cl)c1	–
474 nM	O=S(=O)(/C=C/c1ncccc1F)c1cccc(F)c1	–
2790 nM	O=S(=O)(/C=C/c1cccc(Cl)n1)c1ccc(F)cc1	–
1030 nM	O=S(=O)(/C=C\c1ncccc1Cl)c1ccccc1F	–
286 nM	O=S(=O)(/C=C/c1ncccc1F)c1ccc(Cl)cc1	–
583 nM	O=S(=O)(/C=C\c1ncccc1F)c1ccccc1Cl	–
217 nM	O=S(=O)(/C=C/c1cccnc1Cl)c1ccccc1F	–
> 10000 nM	O=S(=O)(/C=C/c1ccc(Cl)nc1)c1ccc(Cl)cc1	–
176 nM	O=S(=O)(/C=C/c1ncccc1F)c1ccccc1F	–
1630 nM	O=S(=O)(/C=C/c1ccc(Cl)nc1)c1ccccc1Cl	–
1100 nM	O=S(=O)(/C=C\c1ncccc1Cl)c1ccccc1Cl	–
965 nM	O=S(=O)(/C=C\c1ccc(Cl)nc1)c1cccc(F)c1	–
1040 nM	O=S(=O)(/C=C/c1ccc(Cl)cn1)c1ccccc1F	–
198 nM	O=S(=O)(/C=C/c1ncccc1F)c1cccc(Cl)c1	–
231 nM	O=S(=O)(/C=C/c1ncccc1Cl)c1ccc(F)cc1	–
305 nM	O=S(=O)(/C=C/c1cccnc1Cl)c1ccc(Cl)cc1	–
4820 nM	O=S(=O)(/C=C\c1cccnc1)c1cccc(F)c1	–
6850 nM	O=S(=O)(/C=C/c1cccnc1)c1ccccc1F	–
290 nM	O=S(=O)(/C=C\c1ncccc1Cl)c1cccc(Cl)c1	–
213 nM	O=S(=O)(/C=C/c1cccnc1Cl)c1cccc(Cl)c1	–

EC50 [1]	Compound	other results
482 nM	O=S(=O)(/C=C\c1ncccc1F)c1ccccc1F	–
192 nM	O=S(=O)(/C=C/c1cccnc1Cl)c1ccccc1Cl	–
122 nM	O=S(=O)(/C=C/c1ncccc1F)c1ccccc1Cl	–
> 10000 nM	O=S(=O)(/C=C/c1ccc(Cl)nc1)c1ccc(F)cc1	–
1680 nM	O=S(=O)(/C=C/c1ccccn1)c1cccc(F)c1	–
2500 nM	O=S(=O)(/C=C/c1ccc(Cl)cn1)c1cccc(F)c1	–
384 nM	O=S(=O)(/C=C\c1cccnc1Cl)c1ccccc1Cl	–
2550 nM	O=S(=O)(/C=C/c1ccc(Cl)nc1)c1ccccc1F	–
3390 nM	O=S(=O)(/C=C\c1ccc(Cl)nc1)c1cccc(Cl)c1	–
4370 nM	O=S(=O)(/C=C/c1ccc(Cl)cn1)c1ccc(F)cc1	–
1730 nM	O=S(=O)(/C=C/c1ccccn1)c1ccc(Cl)cc1	–
3100 nM	O=S(=O)(/C=C/c1ccccn1)c1ccc(F)cc1	–
339 nM	O=S(=O)(/C=C/c1cccnc1Cl)c1ccc(F)cc1	–
781 nM	O=S(=O)(/C=C/c1ccncc1)c1ccccc1Cl	–
147 nM	O=S(=O)(/C=C\c1cccc(Cl)n1)c1ccccc1Cl	–
4870 nM	O=S(=O)(/C=C/c1ccc(Cl)nc1)c1cccc(F)c1	–
328 nM	O=S(=O)(/C=C/c1cccnc1Cl)c1cccc(F)c1	–
46 nM	O=S(=O)(/C=C/c1ncccc1Cl)c1cccc(Cl)c1	–
542 nM	O=S(=O)(/C=C/c1ncccc1F)c1ccc(F)cc1	–
1050 nM	O=S(=O)(/C=C/c1ccccn1)c1ccccc1F	–

EC50 [1]	Compound	other results
1510 nM	O=S(=O)(/C=C/c1ccc(Cl)cn1)c1cccc(Cl)c1	–
528 nM	O=S(=O)(/C=C/c1ccncc1)c1cccc(Cl)c1	–
618 nM	O=S(=O)(/C=C/c1ccccn1)c1ccccc1Cl	–
2850 nM	O=S(=O)(/C=C/c1cccnc1)c1ccccc1Cl	–
252 nM	O=S(=O)(/C=C\c1ncccc1F)c1cccc(Cl)c1	–
1430 nM	O=S(=O)(/C=C/c1ccccn1)c1cccc(Cl)c1	–
3520 nM	O=S(=O)(/C=C/c1cccnc1)c1cccc(Cl)c1	–
2940 nM	O=S(=O)(/C=C/c1ccc(Cl)cn1)c1ccccc1Cl	–
30 nM	O=S(=O)(/C=C/c1ncccc1Cl)c1ccccc1F	–
2210 nM	O=S(=O)(/C=C/c1ccc(Cl)nc1)c1cccc(Cl)c1	–
950 nM	O=S(=O)(/C=C/c1ccncc1)c1cccc(F)c1	–
760 nM	O=S(=O)(/C=C/c1ccncc1)c1ccccc1F	–
898 nM	O=S(=O)(/C=C/c1cccc(Cl)n1)c1ccccc1F	–
3160 nM	O=S(=O)(/C=C/c1ccc(Cl)cn1)c1ccc(Cl)cc1	–
1750 nM	O=S(=O)(/C=C\c1ncccc1Cl)c1ccc(Cl)cc1	–
3390 nM	O=S(=O)(/C=C\c1cccnc1Cl)c1ccccc1F	–
–	COc1ccccc1S(=O)(=O)/C=C/c1ccccc1Cl	viability at 6 h, 10 µM [2]: 90.1%; activity (CYP2C9): 100%; remaining at 0.5 h [3]: 86.1%; IC50 [4]: 12000 nM
1460 nM	O=S(=O)(/C=C/c1cccc(Cl)n1)c1ccc(Cl)cc1	–
65 nM	O=S(=O)(/C=C/c1ncccc1Cl)c1ccc(Cl)cc1	–
